Results reported in patent US20030165458A1, “Diagnosis, prevention, amelioration and/or treatment of disturbed immune function induced by disturbed lipid metabolism” (priority 2000, published 2003).

How the values were obtained:
[1] = system: Complement Lipid Pathway (CliP); test: MBL in-vitro assay: MBL-dependent complement activation in human serum, hemolysis of heterologous chicken erythrocytes; format: biochemical; conditions: results summarized in FIG. 9
Procedure: Experimental procedure: Chylomicrons were isolated from human serum by ultra centrifugation and purified by column chromatography. The purified chylomicron fractions were added to MBL-positive serum (from healthy human subjects) and MBL-negative serum (from MBL-deficient human subjects) and purified heterologous chicken erythrocytes were added. Complement activation was allowed to occur at 37° C. for 45 min. after which, the extend of hemolysis was evaluated by spectrophotometrical determination of hemoglobin levels in serum supernatants.
Using the MBL in-vitro assay, we identified, as an example, the components from olive oil and soy oil inducing Complement Lipid Pathway (CliP)-activation.

[2] = Standardized oral fat load with and without vitamin A in healthy volunteers; format: in vivo, human
Procedure: Experimental procedure: Fasting venous blood was drawn and Sudan Black staining as described in example 2 was carried out (left panel of FIG. 7). In the right panel of FIG. 7, venous blood of the same healthy volunteer was drawn 4 hours after administration of a standardized oral fat load. In the oral RP-fat loading test, cream is used as fat source; this is a 40% (w/v) fat emulsion with a P/S ratio of 0.06, which contains 0.001% (w/v) cholesterol and 2.8% (w/v) carbohydrates. After an overnight fast of 12 h, the subjects ingest the fresh cream, to which 120.000 U of aqueous RP (Retinyl palmitate =vitamin A) had been added 18 h before the test, in a dose of 50 g per m^2 body surface. After the ingestion of the fat load, subjects were only allowed to drink water or tea during the following 24 h. Peripheral blood samples were obtained in sodium EDTA (2 mg/ml) before (T=0), at hourly intervals up to 10 h and at 12 and 24 h after the meal. Tubes were protected against light by aluminum foil and centrifuged immediately for 15 min at 800×g at 4° C. […]
Experimental procedure: Standardized oral fat loading tests (oral RP fat loading test) were performed in volunteers and patients and plasma C3 levels were determined nephelometrically at regular intervals. Complement component 3 was measured by nephelometry (Dade Behring Nephelometry type II). […]

With CCCCCCCCCCCCCCCC(=O)OC/C=C(C)/C=C/C=C(C)/C=C/C1=C(C)CCCC1(C)C [vitamin A, Retinyl palmitate] the CLiP-induction [1] was “strong CLiP-induction”, the “postprandial plasma C3 increase” value ([2]; 20 healthy volunteers, oral fat load with vs without vitamin A, after 2 h (FIG. 11A)) was “significantly higher” and the “plasma triglyceride increase 2 h after acute oral fat load” value ([2]; healthy volunteers, fat load with vs without vitamin A (FIG. 11B)) was “reduction”.
